According to US20130202698A1 (NANJING SANHOME PHARMACEUTICAL CO., LTD., priority 2005, published 2013):
Marks after values point to notes of the source that are not given here.

Columns and labels:
righting reflex = experiment: Hypnotic effect, loss of righting reflex; assay type: in vivo, mice; settings: mice, 10 animals
Experimental: Thirty minutes after drug administration, the number of animals losing righting reflex (LORR) was recorded. […] Sodium pentobarbital was used at […] as the positive control.

[1] = Phase II clinical trial, intravenous, adverse events; assay type: in vivo, human; settings: human phase II, I.V.
Experimental: A double-blinded randomized controlled trial was carried out to compare the adverse events between the I.V. levo-ornidazole and racemate treatment groups. […] The high rate of adverse events observed from the treatment by the racemic drug caused patient treatment non-compliant, which could be dangerous for life-threatening infections.

Beagle dogs = settings: Beagle dogs, I.V. 200 mg/kg for 2 weeks
Experimental: In the studies, male and female Beagle dogs were treated at high doses of ornidazole enantiomers for 2 weeks, and then sacrificed for anatomical and pathological examinations. […] All the doses were administered in the levo- and racemate groups.

trichomonas vaginalis = experiment: Pharmacodynamic study of trichomonas vaginalis infection in mice; assay type: in vivo; set-up: ED90: unit not given beside the values
Experimental: Male ICR mice were injected intraperitoneally with liquid containing 0.4 ml 3×10^6 trichomonas vaginalis (trichomonas vaginalis from clinical patients). The mice were randomly divided into 19 groups, each with 10. The mice in solvent control group were given blank solutions by tail vein injection. The treatment groups were injected intravenously at 2, 24, 48, and 72 hours after infection with active drugs. The animals were killed five days after infection. Washing offal, fluid was centrifuged, and microscopically examined for life larvae. Autopsy was performed to determine whether there was any visceral and abdominal abscess, microscopic examination was conducted to determine the number of live trichomoniasis in the abscess. […] The abscess formation was inhibited in the treatment groups[…] and the number of live trichomoniasis was reduced. Calculate the dosage of 50% (ED50) and 90% (ED90) inhibition rate.

amoeba dysentery = experiment: Pharmacodynamic study of cecum amoeba infection in mice; assay type: in vivo; settings: male ICR mice infected in the cecum, drug i.v. at 24, 48, 72 hours
Experimental: Male ICR mice were injected with liquid containing about 200,000 units of amoeba dysentery in the cecum. The mice were randomly divided into 19 groups, each with 10. The mice in solvent control group were given blank solutions by tail vein injection. The treatment groups were injected intravenously at 24, 48, 72 hours after infection with active drugs. The animals were killed six days after infection. Intestinal mucosal biopsies were done, and comparative studies of different stages of the amoeba were studied under microscope. […] Calculated the dosage of 50% (ED50) and 90% (ED90) inhibition rate.

SMILES: Cc1ncc([N+](=O)[O-])n1CC(O)CCl (racemic) [Racemic ornidazole, 1-(3-Chloro-2-hydroxypropyl)-2-methyl-5-nitroimidazole]
- Number of animals Loss of Righting Flex 30 min Post-dose (righting reflex; 40 mg/kg): 0
- Number of animals Loss of Righting Flex 30 min Post-dose (righting reflex; 80 mg/kg): 0
- Number of animals Loss of Righting Flex 30 min Post-dose (righting reflex; 160 mg/kg, listed as Racemate): 6*^#
- Number of animals Loss of Righting Flex 30 min Post-dose (righting reflex; 160 mg/kg, listed as racemate): 6
- Adverse events reported (total) [1]: 42
- Appetite drop, # of Patients with AE [1]: 0
- Appetite drop, Incidence (%) [1]: 0.00%
- Dizziness, # of Patients with AE [1]: 5
- Dizziness, Incidence (%) [1]: 3.60%
- Dry mouth, # of Patients with AE [1]: 2
- Dry mouth, Incidence (%) [1]: 1.44%
- Headache, # of Patients with AE [1]: 1
- Headache, Incidence (%) [1]: 0.72%
- Hypersomnia, # of Patients with AE [1]: 10
- Hypersomnia, Incidence (%) [1]: 7.19^## %
- Hypodynamia, # of Patients with AE [1]: 1
- Hypodynamia, Incidence (%) [1]: 0.72%
- Nausea, # of Patients with AE [1]: 1
- Nausea, Incidence (%) [1]: 0.72%
- Stomach discomfort, # of Patients with AE [1]: 1
- Stomach discomfort, Incidence (%) [1]: 0.72%
- Total incidence rate of adverse events [1]: 21.58%
- Vertigo, # of Patients with AE [1]: 17
- Vertigo, Incidence (%) [1]: 12.23^## %
- Vomiting, # of Patients with AE [1]: 1
- Vomiting, Incidence (%) [1]: 0.72%
- WBC decline, # of Patients with AE [1]: 3
- WBC decline, Incidence (%) [1]: 2.16%
- Patients with adverse events (total) ([1]; out of 136 (levo) / 139 (racemate) patients): 30 patients
- Toxicity Severity (Beagle dogs): Moderate
- ED50 (trichomonas vaginalis; Trichomonas vaginalis, 72 h): 11.3 mg/kg
- ED90 (trichomonas vaginalis; male ICR mice infected intraperitoneally, drug i.v. at 2, 24, 48, 72 hours, dosage of 90% inhibition rate): 43.8
- ED50 (amoeba dysentery; Mus musculus, iv, dosage of 50% inhibition rate): 11.4 mg/kg
- ED90 (amoeba dysentery; dosage of 90% inhibition rate): 55.2
